# Source: PubChem BioAssay AID1963446 (Molecular Pharmacology Branch, DTP, NCI, 2024)
# Tested on: 993429-296-R-J1-PDC complex spheroid growth, percent test/control
# Experiment: Anticancer human tumor 993429-296-R-J1-PDC patient-derived uterine sarcoma cell line growth inhibition [Asc]
# Settings: for IC50: curve of first compound; for viability, T/C: stronger effect = lower value
# Summary of the method: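 Spheroid model: tumor line + HUVEC + hMSC. Single agents and combinations; top conc. at/near clinical Cmax (10 microM if undetermined), half-log dilutions. DMSO stocks at 800-fold test concentration.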
# 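Further: spheroids exposed to compounds for seven days.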
smiles,measurement,setting,value
C=C(F)C(=O)N1CCN(c2nc(OCC3CCCN3C)nc3c2CCN(c2cccc4cccc(Cl)c24)C3)CC1CC#N (stereo not given) + Cc1c(S(C)(=O)=O)c(-c2cc(F)cc(N3CCN(c4ccc(NS(=O)(=O)c5ccc(NC(CCN6CCC(C(=O)OCCCP(=O)(O)O)CC6)CSc6ccccc6)c(S(=O)(=O)C(F)(F)F)c5)cc4)CC3)c2)c(-c2ccc(Cl)cc2)n1C(C)C,IC50,second compound 0.1 µM,494 nM
same,IC50,second compound 0.316 µM,460 nM
same,IC50,second compound 1 µM,321 nM
same,IC50,second compound 3.16 µM,< 31.6 nM
same,IC50,second compound 10 µM,553 nM
same,"viability, T/C","second compound 0.1 µM, first compound 0.0316 µM",57.1%
same,"viability, T/C","second compound 0.1 µM, first compound 0.1 µM",85%
same,"viability, T/C","second compound 0.1 µM, first compound 0.316 µM",69.2%
same,"viability, T/C","second compound 0.1 µM, first compound 1 µM",17.5%
same,"viability, T/C","second compound 0.1 µM, first compound 3.16 µM",0.55%
same,"viability, T/C","second compound 0.1 µM, first compound 10 µM",0.23%
same,"viability, T/C","second compound 0.316 µM, first compound 0.0316 µM",71.8%
same,"viability, T/C","second compound 0.316 µM, first compound 0.1 µM",77.1%
same,"viability, T/C","second compound 0.316 µM, first compound 0.316 µM",70.6%
same,"viability, T/C","second compound 0.316 µM, first compound 1 µM",7.35%
same,"viability, T/C","second compound 0.316 µM, first compound 3.16 µM",0.21%
same,"viability, T/C","second compound 0.316 µM, first compound 10 µM",0.19%
same,"viability, T/C","second compound 1 µM, first compound 0.0316 µM",49.5%
same,"viability, T/C","second compound 1 µM, first compound 0.1 µM",60.8%
same,"viability, T/C","second compound 1 µM, first compound 0.316 µM",50.5%
same,"viability, T/C","second compound 1 µM, first compound 1 µM",5.26%
same,"viability, T/C","second compound 1 µM, first compound 3.16 µM",0.3%
same,"viability, T/C","second compound 1 µM, first compound 10 µM",0.14%
same,"viability, T/C","second compound 3.16 µM, first compound 0.0316 µM",46.9%
same,"viability, T/C","second compound 3.16 µM, first compound 0.1 µM",49.6%
same,"viability, T/C","second compound 3.16 µM, first compound 0.316 µM",35.9%
same,"viability, T/C","second compound 3.16 µM, first compound 1 µM",7.98%
same,"viability, T/C","second compound 3.16 µM, first compound 3.16 µM",0.08%
same,"viability, T/C","second compound 3.16 µM, first compound 10 µM",0.17%
same,"viability, T/C","second compound 10 µM, first compound 0.0316 µM",78.9%
same,"viability, T/C","second compound 10 µM, first compound 0.1 µM",108%
same,"viability, T/C","second compound 10 µM, first compound 0.316 µM",87.3%
same,"viability, T/C","second compound 10 µM, first compound 1 µM",10.4%
same,"viability, T/C","second compound 10 µM, first compound 3.16 µM",0.43%
same,"viability, T/C","second compound 10 µM, first compound 10 µM",0.3%
